Measurements reported in publication PMC7915275, “Mycobacterial and Human Ferrous Nitrobindins: Spectroscopic and Reactivity Properties” (International Journal of Molecular Sciences, 2021).
Converted amounts (≈) assume the structure as drawn. Like-named read-outs stand apart in the source and are kept apart here.

Columns and labels:
[1] = molecular target: Rp-NP4(II); parameters: method as in PMID 22594621; conditions: pH 7.5, 20.0 °C, cited from earlier work
[2] = tested on: Pc-Mb(II); parameters: method as in PMID 2303446; conditions: pH 7.0, 20.0 °C, cited from earlier work
[3] = cited from earlier work
[4] = molecular target: Rp-NP7(II); parameters: method as in PMID 22594621; conditions: pH 7.5, 20.0 °C, cited from earlier work
[5] = tested on: Pc-Mb(II); test: CO binding kinetics to Pc-Mb(II) (literature); parameters: species or system Physeter catodon
[6] = molecular target: T1, Mt-Nb(II) (Mycobacterium tuberculosis, UniProt P9WFG7); test: CO binding to and dissociation from Mt-Nb(II) by rapid-mixing stopped-flow (incl. CO displacement by NO); parameters: made in house
T1 sequence (P9WFG7 whole entry): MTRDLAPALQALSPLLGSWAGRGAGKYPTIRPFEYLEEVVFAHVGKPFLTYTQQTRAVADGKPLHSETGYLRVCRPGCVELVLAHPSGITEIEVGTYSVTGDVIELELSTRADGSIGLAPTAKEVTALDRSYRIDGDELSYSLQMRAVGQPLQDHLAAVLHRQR

[7] = tested on: Ec-Mb(II); conditions: cited from earlier work
[8] = tested on: Ec-Mb(II); test: CO binding kinetics to Ec-Mb(II) (literature); parameters: species or system Equus caballus
[9] = molecular target: T2, At-Nb(II) (Arabidopsis thaliana, UniProt O64527); parameters: method as in PMID 19938152; conditions: pH 7.0, 20.0 °C, cited from earlier work
T2 construct: made in house
T2 sequence (O64527 whole entry): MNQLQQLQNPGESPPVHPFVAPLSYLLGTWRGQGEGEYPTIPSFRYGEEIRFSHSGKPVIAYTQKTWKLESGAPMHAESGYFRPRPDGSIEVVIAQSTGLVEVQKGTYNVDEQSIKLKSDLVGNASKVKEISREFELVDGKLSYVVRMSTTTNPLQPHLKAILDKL

[10] = molecular target: T1, Mt-Nb(II); test: CO rebinding to Mt-Nb(II) after nanosecond laser flash photolysis
Description: CO rebinding kinetics to Mt-Nb(II) and Hs-Nb(II) at pH 7.4 (5.0 × 10^−2 M phosphate buffer) was obtained using the second harmonic (532 nm) of a Q-switched Nd:YAG laser (Surelite I-10, Continuum, Santa Clara, CA, USA) and the cw output of a 150 W Xe arc lamp was used as probe beam to monitor absorbance changes at 436 nm.
The CO adducts were obtained by equilibrating solutions in either 0.2 CO atm or 1.0 CO atm. The oxidation state, the molar fraction of ferrous carbonylated Nbs, and the Nb concentration were determined spectrophotometrically. Kinetics were analyzed according to Scheme 3.
According to Scheme 3, there are two types of processes, namely the formation of the A state directly from state B, which is much faster and independent on the ligand concentration (geminate recombination), whose extent φgem depends on the relative rates kBA(L) and kBC(L) according to the following relationship (3) φgem= kBA(L)/(kBA(L)+kBC(L)) and the observed rate rgem corresponds to (4) rgem= kBA(L)+ kBC(L) the formation of state A from state C (through the transient formation of state B), which depends on the ligand concentration (bimolecular recombination) and it is characterized by the second-order rate rbim corresponding to (5) rbim= kCB(L) × φgem

[11] = molecular target: T3, Hs-Nb(II) (Homo sapiens, UniProt Q8WY91); test: CO binding to and dissociation from Hs-Nb(II) by rapid-mixing stopped-flow (incl. CO displacement by NO); conditions: for kobs(CO): λ = 421 nm
T3 construct: Homo sapiens Nb (Hs-Nb) is the C-terminal domain of the THAP4 protein; made in house
T3 sequence (Q8WY91 415-577 limits assumed): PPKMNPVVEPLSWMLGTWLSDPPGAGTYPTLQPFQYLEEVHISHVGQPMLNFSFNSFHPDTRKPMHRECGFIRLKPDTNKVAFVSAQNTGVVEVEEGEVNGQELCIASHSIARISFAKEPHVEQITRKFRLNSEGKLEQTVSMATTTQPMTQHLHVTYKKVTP
Protocol: Progress kinetic curves at selected wavelengths were analyzed according to Equation (1): (1) ODobs=OD0±∑i=1i−nΔODie^(−kit) where ODobs is the observed optical density at a selected wavelength and at a given time interval, OD0 is the optical density at t = 0, n is the number of exponentials, ΔODi is the optical density change associated to the exponential i, ki is the pseudo-first-order rate constant of the exponential i (i.e., kobs(CO)) and t is the time. Since data collection occurs on a logarithmic scale, experimental points in the first second represent the absolute majority (about 70 out of 100 points) of total collected ones.
Values of the second-order rate constant for Mt-Nb(II)-CO and Hs-Nb(II)-CO formation (i.e., kon(CO)) and of the first-order rate constant for CO dissociation from Mt-Nb(II)-CO and Hs-Nb(II)-CO (i.e., koff(CO)) were obtained from the dependence of the pseudo-first-order rate constant for Mt-Nb(II) and Hs-Nb(II) carbonylation (i.e., kobs(CO)) on the ligand concentration (i.e., [CO]) according to Equation (2):kobs(CO) = kon(CO) × [CO] + koff(CO)(2)
The values of the first-order rate constant for CO dissociation from Mt-Nb(II)-CO and Hs-Nb(II)-CO (i.e., for CO replacement by NO; koff(CO)) were also determined by mixing the Mt-Nb(II)-CO and Hs-Nb(II)-CO (final concentration, 2.0 × 10^−6 M to 5.0 × 10^−6 M; [CO] = 1.0 × 10^−4 M) solutions with the NO saturated solution (final concentration, […]), under anaerobic conditions (i.e., in the presence of 2.0 × 10^−3 M sodium dithionite), at pH 7.0 (1.0 × 10^−1 M phosphate buffer), and 25.0 °C; no gaseous phase was present. Kinetics of CO dissociation from Mt-Nb(II)-CO and Hs-Nb(II)-CO was recorded at 421 nm.
The conversion of Mt-Nb(II)-CO and Hs-Nb(II)-CO to Mt-Nb(II)-NO and Hs-Nb(II)-NO, respectively, was analyzed in the framework of Scheme 2 [75]:
The values of koff(CO) were determined from data analysis, according to Equation (1). The over 100-fold excess of NO over CO guarantees that the reaction proceeds rightward because kon(NO) × [NO] >> kon(CO) × [CO] [75].
Rapid-mixing experiments were carried out employing an SX18.MV stopped-flow apparatus (Applied Photophysics, Salisbury, UK), equipped with a diode array for spectra acquisition over a 1 ms time range (the light path of the observation chamber was 10 mm) and an SFM-20/MOS-200 rapid-mixing stopped-flow apparatus (BioLogic Science Instruments, Claix, France) (the light path of the observation chamber was 10 mm).

[12] = molecular target: T3, Hs-Nb(II); test: CO rebinding to Hs-Nb(II) after nanosecond laser flash photolysis; assay type: binding
Protocol: Kinetics were analyzed according to Scheme 3.

[13] = tested on: Pc-Mb(II); parameters: method as in PMID 5800433; conditions: pH 7.0, 20.0 °C, temperature-jump method; cited from earlier work
[14] = molecular target: T3, Hs-Nb(II); test: O2 dissociation from Hs-Nb(II)-O2 by oxygen pulse experiments; assay type: binding; conditions: Hs-Nb(II)-O2, pH 7.0, 25.0 °C
Protocol: (§1) Kinetics of O2 dissociation from the transient Mt-Nb(II)-O2, At-Nb(II)-O2 and Hs-Nb(II)-O2 species were investigated spectrophotometrically at pH 7.0 (1.0 × 10^−1 M phosphate buffer) and 25.0 °C by oxygen pulse experiments. This type of reaction proceeds according to Scheme 6.
(§2) The deoxygenation of Mt-Nb(II)-O2 and Hs-Nb(II)-O2 process was followed at 431 nm. Kinetics of Mt-Nb(II)-O2 and Hs-Nb(II)-O2 deoxygenation were analyzed according to Equation (1).
(§3) Rapid-mixing experiments were carried out employing an SX18.MV stopped-flow apparatus (Applied Photophysics, Salisbury, UK) equipped with a diode array for spectra acquisition over a 1 ms time range; the light path of the observation chamber was 10 mm.

[15] = molecular target: T2, At-Nb(II); test: O2 dissociation from At-Nb(II)-O2 by oxygen pulse experiments; assay type: binding; conditions: At-Nb(II)-O2, pH 7.0, 25.0 °C
Protocol: as §1, §2, §3

[16] = molecular target: T1, Mt-Nb(II); test: O2 dissociation from Mt-Nb(II)-O2 by oxygen pulse experiments; assay type: binding; parameters: made in house; conditions: Mt-Nb(II)-O2, pH 7.0, 25.0 °C
Protocol: as §1, §2, §3

[17] = faster phase, Eyring plots 10.0-40.0 °C
[18] = slower phase, Eyring plots 10.0-40.0 °C

SMILES: [C-]#[O+] [CO]
- Kd ([1]; read-out: K (=koff/kon) for CO, first value (77% phase)): 0.22 nM
- Kd ([1]; read-out: K (=koff/kon) for CO, second value (23% phase)): 0.22 nM
- koff(CO), 23% phase [1]: 0.0041 s⁻¹
- koff(CO), 77% phase [1]: 0.0097 s⁻¹
- kon(CO), 23% phase [1]: 1.9e+07 M⁻¹ s⁻¹
- kon(CO), 77% phase [1]: 4.5e+07 M⁻¹ s⁻¹
- kon(CO) ([2]; rapid-mixing and laser photolysis): 510000 M⁻¹ s⁻¹
- Kd ([2]; read-out: K (=koff/kon) for CO): 37 nM
- koff(CO) [2]: 0.019 s⁻¹
- solubility in the aqueous buffered solution ([3]; p = 760.0 mm Hg, 20.0 °C, phosphate buffer pH 7.0): 1030 µM (≈ 28.9 µg/mL)
- Kd ([4]; read-out: K (=koff/kon) for CO, first value (30% phase)): 0.088 nM
- Kd ([4]; read-out: K (=koff/kon) for CO, second value (70% phase) (converted)): 0.015 nM
- koff(CO), 30% phase [4]: 0.0044 s⁻¹
- koff(CO), 70% phase [4]: 0.00076 s⁻¹
- kon(CO) [4]: 5e+07 M⁻¹ s⁻¹
- activation free energy ΔG^‡ of CO binding [5]: 9.49 kcal/mol
- Kd ([6]; Mt-Nb(II), pH 7.0, 25.0 °C, read-out: K (=koff/kon) for CO): 63000 nM
- kon(CO) ([6]; Mt-Nb(II), rapid-mixing, pH 7.0, 25.0 °C): 55000 M⁻¹ s⁻¹
- koff(CO) ([6]; Mt-Nb(II)-CO, pH 7.0, 25.0 °C): 3.5 ± 0.5 s⁻¹
- activation free energy ΔG^‡ of CO binding ([6]; Mt-Nb, from CO binding rate constant): 10.8 kcal/mol
- koff(CO) ([7]; footnote not given): 0.035 s⁻¹
- kon(CO) ([7]; pH 7.0, 20.0 °C): 500000 M⁻¹ s⁻¹
- kon(CO) ([7]; pH 7.0, 25.0 °C): 610000 M⁻¹ s⁻¹
- Kd ([7]; read-out: K (=koff/kon) for CO): 57 nM
- activation free energy ΔG^‡ of CO binding [8]: 9.37 kcal/mol
- Kd ([9]; read-out: K (=koff/kon) for CO): 220 nM
- koff(CO) [9]: 0.05 s⁻¹
- kon(CO) [9]: 230000 M⁻¹ s⁻¹
- ΔH1^‡ bimolecular CO binding [10, 17]: 7.65 ± 0.48 kcal/mol
- ΔG1^‡ bimolecular CO binding ([10]; faster phase, at 20.0 °C): 10 ± 0.72 kcal/mol
- φgem (CO geminate rebinding) ([10]; laser photolysis): ≤ 0.05
- ΔH2^‡ bimolecular CO binding [10, 18]: 8.6 ± 0.96 kcal/mol
- ΔG2^‡ bimolecular CO binding ([10]; slower phase, at 20.0 °C): 10.5 ± 0.96 kcal/mol
- kobs(CO) ([11]; Hs-Nb(II), [CO] = 2.1 × 10^−4 M, pH 7.0, 25.0 °C): (2.4 ± 0.3) × 10^1 s^−1
- kobs(CO) ([11]; Hs-Nb(II), [CO] = 4.5 × 10^−5 M, pH 7.0, 25.0 °C): 8.3 ± 0.9 s⁻¹
- kobs(CO) ([11]; Hs-Nb(II), [CO] = 7.0 × 10^−5 M, pH 7.0, 25.0 °C): (1.1 ± 0.1) × 10^1 s^−1
- Kd ([11]; Hs-Nb(II), pH 7.0, 25.0 °C, read-out: K (=koff/kon) for CO): 38000 nM
- kon(CO) ([11]; Hs-Nb(II), rapid-mixing, pH 7.0, 25.0 °C): 100000 M⁻¹ s⁻¹
- koff(CO) ([11]; Hs-Nb(II)-CO, pH 7.0, 25.0 °C): 3.8 ± 0.5 s⁻¹
- activation free energy ΔG^‡ of CO binding ([11]; Hs-Nb, from CO binding rate constant): 10.4 kcal/mol
- rgem (CO geminate recombination rate) ([12]; 25 °C): 9e+07 s⁻¹
- kBA(CO) ≈ rgem × φgem ([12]; Equation (3)): ≈ 4.5 × 10^6 s^−1
- kBC(CO) ≈ rgem - kBA(CO) ([12]; escape to solvent): ≈ 8.5 × 10^7 s^−1
- ΔH1^‡ bimolecular CO binding [12, 17]: 9.08 ± 0.96 kcal/mol
- ΔG1^‡ bimolecular CO binding ([12]; faster phase, at 20.0 °C): 8.37 ± 2.87 kcal/mol
- geminate CO recombination, share of total amplitude of the rebinding process ([12]; laser photolysis): ~ 5%
- φgem (CO geminate rebinding) ([12]; laser photolysis): ≤ 0.05
- ΔH2^‡ bimolecular CO binding [12, 18]: 9.08 ± 0.96 kcal/mol
- ΔG2^‡ bimolecular CO binding ([12]; slower phase, at 20.0 °C): 10 ± 1.4 kcal/mol

SMILES: O=O [O2]
- solubility in the aqueous buffered solution ([3]; p = 760 mm Hg, T = 20.0 °C, phosphate buffer pH 7.0, reference not given): 1250 µM (≈ 40 µg/mL)
- koff(O2) [13]: 10 s⁻¹
- koff(O2) [14]: 19 s⁻¹
- koff(O2) [15]: 6.8 s⁻¹
- koff(O2) [16]: 11 s⁻¹
